Values of other authors as cited in patent US20130059872A1, “POLYMORPHS OF ALOGLIPTIN BENZOATE” (MAPI PHARMA LIMITED, priority 2010, published 2013).

Details: DSC data according to WO 2007/035372; recrystallization at 132° C., melt onset at 183° C.

In the case of Cn1c(=O)cc(N2CCC[C@@H](N)C2)n(Cc2ccccc2C#N)c1=O [amorphous form 1 of WO 2007/035372, alogliptin benzoate], the “solid-state stability of the amorphous phase on heating” value is given as “crystallized to crystalline form A during heating”.
